{"source": "paper PMC12288536", "about": "“Development of an atrazine immunoassay based on highly catalytically active Au@PtNPs and specific nanobody” (Research Square, 2025)", "key": {"Au@PtNPs-nanobody probe": {"tested_on": "Au@PtNPs-nanobody probe", "experiment": "dc-ELISA based on Au@PtNPs-nanobody probe (direct competitive), incl. matrix effect evaluation", "assay_type": "binding, alpaca", "settings": "for CR% (Au@PtNPs-nanobody): cross-reaction = IC50(atrazine)/IC50(analog); for IC50 (Au@PtNPs-nanobody): optimal conditions, 1×PBS containing 5% methanol", "protocol": "The sodium chloride interference method was used to determine the optimal conditions for coupling. Adjust the Au@PtNPs-145 nm (10 mL) to the optimal pH with 0.1 M K2CO3, then the optimal amount of nanobody and BSA (0.1 g) were added dropwise to the solution and stirred for 30 minutes. PEG20000 (0.05 g) was then added to the above solution and incubated at 4°C overnight after stirring for 30 minutes. The probe was purified by fractionation and centrifugation at 4°C, and the precipitate was collected and re-dissolved in 1 mL of probe diluent (pH 7.2, PBS buffer containing 1% sucrose, 0.1% BSA, 0.1% Tween 20 and 0.1% alginate) at 4°C for storage and further use.\nAu@PtNPs-nanobody was used to develop a new dc-ELISA, and the optimal concentrations of probe and coating antigen were confirmed by the checkerboard method, and the sensitivity of dc-ELISA was evaluated under optimal conditions. The cross-reactivity of the dc-ELISA to atrazine analogs was also evaluated to compare with the specificity of ic-ELISA.\nTap water, river water and soil without atrazine were selected as samples for the evaluation of matrix effects. The effect of tap water, river water and soil on the sensitivity of the detection method was evaluated using two newly developed immunoassay methods based on Au@PtNPs-nanobody. The accuracy of the developed method for real samples was also verified using high performance liquid chromatography (HPLC). The solid sample (10 g) was simultaneously extracted with 20 ml of methanol in a vortex mixer for 15 minutes. The mixture was then centrifuged at 4000 rpm for 5 minutes and the supernatant was collected, diluted appropriately and analyzed by HPLC. After confirming that the samples were free of atrazine, atrazine solution was added to the samples so that the final concentrations of atrazine in the samples were 1 μg/mL, 5 μg/mL, and 10 μg/mL, and then the samples were subjected to dc-ELISA. HPLC was also used for validation.\nConsidering the real samples detection, complex matrix can affect the recognition and binding between antibodies and coating antigens/analytes, which seriously interferes with the performance of the immunoassay and affects the accuracy of the analytical results. Therefore, matrix effects should be minimized or eliminated during sample analysis to ensure the accuracy of the immunoassay method. The simplest method for matrix elimination or reduction is to dilute the sample with the assay buffer. In this study, tap water, river water and soil were selected for matrix effect evaluation. The tap water samples confirmed to be none of atrazine were diluted directly with 1×PBS to a total dilution ratio of 2-, 4-, 8-, and 16-fold, and then different concentrations of atrazine solution were prepared with these obtained buffer solutions, respectively. […] But, tap water samples diluted […] had higher IC50 when compared with assay buffer or other diluted samples. […] Therefore, the 4-fold dilution was selected for the tap water samples. Similarly, river water samples diluted 4-fold and 8-fold had higher IC50 values compared to assay buffer or other diluted samples. […] Therefore, 16-fold dilution was selected for the river water sample (Fig. 4C). Soil samples without atrazine were used as blank samples and extracted with methanol, then diluted with 1×PBS resulting in a total dilution ratio of 10, 20, 40, 60 and 80-fold. Atrazine standard solutions were prepared using the above obtained buffer solutions. […] When the soil matrix was diluted 60 and 80-fold, there was no significant difference between their maximum absorbance and IC50 . Therefore, the 60-fold dilution was selected for the next spike and recovery study. Spiked-recovery validation using both HPLC and dc-ELISA to evaluate the precision of the dc-ELISA. […] Also, the results of the dc-ELISA method were approximately consistent with that of HPLC."}, "Nanobody-26": {"tested_on": "Nanobody-26", "experiment": "ic-ELISA based on atrazine nanobody (indirect competitive)", "assay_type": "binding, alpaca", "settings": "for IC50 (Nanobody): coating antigen 2e-BSA; for CR% (Nanobody): cross-reaction = IC50(atrazine)/IC50(analog)", "protocol": "In this study, ic-ELISA was first used to assess the effect of two coating antigens on the sensitivity of the nanobody. The optimal concentrations of nanobody and coating antigen were confirmed by the checkerboard method, and the sensitivity of nanobody was evaluated under optimal conditions. Detailed procedures for sensitivity assessment of nanobody were presented in the Supplementary Material.\nCross-reactivity evaluation was performed using the developed ic-ELISA for atrazine, simazine, terbuthylazine, terbutryn, cyanuric acid, ametryn, melamine, atrazine-2-hydroxy and 2-chloro-4,6-diamino-1,3,5-triazine. The above compounds were prepared into standard solutions at certain concentrations, and the standard inhibition curves were established. The cross-reactions were calculated according to the respective IC50 obtained from the standard inhibition curves and the following formula: Cross-reaction(CR%)=IC50(atrazine)∕IC50(the other structurally similar compound)"}}}
{"smiles": "Nc1nc(N)nc(Cl)n1", "note": "[2-chloro-4,6-diamino-1,3,5-triazine]", "values": [{"measurement": "CR% (Au@PtNPs-nanobody)", "setting": "Au@PtNPs-nanobody probe", "result": 3.42, "unit": "%"}, {"measurement": "IC50 (Au@PtNPs-nanobody)", "setting": "Au@PtNPs-nanobody probe", "result": 0.93, "unit": "µg/mL"}, {"measurement": "IC50 (Nanobody)", "setting": "Nanobody-26", "result": 1.1, "unit": "µg/mL"}, {"measurement": "CR% (Nanobody)", "setting": "Nanobody-26", "result": 5.40, "unit": "%"}]}
{"smiles": "CCNc1nc(NC(C)C)nc(SC)n1", "note": "[Ametryn]", "values": [{"measurement": "CR% (Au@PtNPs-nanobody)", "setting": "Au@PtNPs-nanobody probe", "result": 3.55, "unit": "%"}, {"measurement": "IC50 (Au@PtNPs-nanobody)", "setting": "Au@PtNPs-nanobody probe", "result": 0.90, "unit": "µg/mL"}, {"measurement": "IC50 (Nanobody)", "setting": "Nanobody-26", "result": 0.23, "unit": "µg/mL"}, {"measurement": "CR% (Nanobody)", "setting": "Nanobody-26", "result": 27.4, "unit": "%"}, {"measurement": "CR% (Nanobody)", "setting": "Nanobody-26; listed as ametryn", "result": "about 30%"}]}
{"smiles": "CCNc1nc(NC(C)C)[nH]c(=O)n1", "note": "[Atrazine-2-hydroxy]", "values": [{"measurement": "CR% (Au@PtNPs-nanobody)", "setting": "Au@PtNPs-nanobody probe", "result": "< 0.1", "unit": "%"}, {"measurement": "IC50 (Au@PtNPs-nanobody)", "setting": "Au@PtNPs-nanobody probe", "result": "> 100", "unit": "µg/mL"}, {"measurement": "IC50 (Nanobody)", "setting": "Nanobody-26", "result": "> 100", "unit": "µg/mL"}, {"measurement": "CR% (Nanobody)", "setting": "Nanobody-26", "result": "< 0.1", "unit": "%"}]}
{"smiles": "CCNc1nc(Cl)nc(NCC)n1", "note": "[Simazine]", "values": [{"measurement": "CR% (Au@PtNPs-nanobody)", "setting": "Au@PtNPs-nanobody probe", "result": 6.01, "unit": "%"}, {"measurement": "CR% (Au@PtNPs-nanobody)", "setting": "Au@PtNPs-nanobody probe; listed as simazine", "result": "less than 7%"}, {"measurement": "IC50 (Au@PtNPs-nanobody)", "setting": "Au@PtNPs-nanobody probe", "result": 0.53, "unit": "µg/mL"}, {"measurement": "IC50 (Nanobody)", "setting": "Nanobody-26", "result": 0.18, "unit": "µg/mL"}, {"measurement": "CR% (Nanobody)", "setting": "Nanobody-26", "result": 33.6, "unit": "%"}, {"measurement": "CR% (Nanobody)", "setting": "Nanobody-26; listed as simazine", "result": "about 30%"}]}
{"smiles": "Oc1nc(O)nc(O)n1", "note": "[Cyanuric acid]", "values": [{"measurement": "CR% (Au@PtNPs-nanobody)", "setting": "Au@PtNPs-nanobody probe", "result": "< 0.1", "unit": "%"}, {"measurement": "IC50 (Au@PtNPs-nanobody)", "setting": "Au@PtNPs-nanobody probe", "result": "> 100", "unit": "µg/mL"}, {"measurement": "IC50 (Nanobody)", "setting": "Nanobody-26", "result": "> 100", "unit": "µg/mL"}, {"measurement": "CR% (Nanobody)", "setting": "Nanobody-26", "result": "< 0.1", "unit": "%"}]}
{"smiles": "CCNc1nc(Cl)nc(NC(C)(C)C)n1", "note": "[Terbuthylazine]", "values": [{"measurement": "CR% (Au@PtNPs-nanobody)", "setting": "Au@PtNPs-nanobody probe", "result": 10.9, "unit": "%"}, {"measurement": "IC50 (Au@PtNPs-nanobody)", "setting": "Au@PtNPs-nanobody probe", "result": 0.29, "unit": "µg/mL"}, {"measurement": "IC50 (Nanobody)", "setting": "Nanobody-26", "result": 0.085, "unit": "µg/mL"}, {"measurement": "CR% (Nanobody)", "setting": "Nanobody-26", "result": 72.7, "unit": "%"}]}
{"smiles": "Nc1nc(N)nc(N)n1", "note": "[Melamine]", "values": [{"measurement": "CR% (Au@PtNPs-nanobody)", "setting": "Au@PtNPs-nanobody probe", "result": "< 0.1", "unit": "%"}, {"measurement": "IC50 (Au@PtNPs-nanobody)", "setting": "Au@PtNPs-nanobody probe", "result": "> 100", "unit": "µg/mL"}, {"measurement": "IC50 (Nanobody)", "setting": "Nanobody-26", "result": "> 100", "unit": "µg/mL"}, {"measurement": "CR% (Nanobody)", "setting": "Nanobody-26", "result": "< 0.1", "unit": "%"}]}
{"smiles": "CCNc1nc(N)nc(Cl)n1", "note": "[deisopropylatrazine]", "values": [{"measurement": "CR% (Au@PtNPs-nanobody)", "setting": "Au@PtNPs-nanobody probe", "result": "less than 7%"}]}
{"smiles": "CCNc1nc(Cl)nc(NC(C)C)n1", "note": "[Atrazine]", "values": [{"measurement": "CR% (Au@PtNPs-nanobody)", "setting": "Au@PtNPs-nanobody probe", "result": 100, "unit": "%"}, {"measurement": "IC50 (Au@PtNPs-nanobody)", "setting": "Au@PtNPs-nanobody probe", "result": 0.032, "unit": "µg/mL"}, {"measurement": "IC50 (Nanobody)", "setting": "Nanobody-26", "result": 0.062, "unit": "µg/mL"}, {"measurement": "CR% (Nanobody)", "setting": "Nanobody-26", "result": 100, "unit": "%"}]}
{"smiles": "CCNc1nc(NC(C)(C)C)nc(SC)n1", "note": "[Terbutryn]", "values": [{"measurement": "CR% (Au@PtNPs-nanobody)", "setting": "Au@PtNPs-nanobody probe", "result": "< 0.1", "unit": "%"}, {"measurement": "CR% (Au@PtNPs-nanobody)", "setting": "Au@PtNPs-nanobody probe; listed as terbutryn", "result": "greater than 10%"}, {"measurement": "IC50 (Au@PtNPs-nanobody)", "setting": "Au@PtNPs-nanobody probe", "result": "> 100", "unit": "µg/mL"}, {"measurement": "IC50 (Nanobody)", "setting": "Nanobody-26", "result": "> 100", "unit": "µg/mL"}, {"measurement": "CR% (Nanobody)", "setting": "Nanobody-26", "result": "< 0.1", "unit": "%"}, {"measurement": "CR% (Nanobody)", "setting": "Nanobody-26; listed as terbutryn", "result": "greater than 70%"}]}
